Experimental data as given in patent publication US4461773A, “P-Oxooxazolidinylbenzene compounds as antibacterial agents” (E. I. DuPont de Nemours and Company, priority 1984, dated 1984).
≈ marks a conversion by molar mass, not a printed value.

Experiments:
E. Coli [1] = assay: In vitro broth microdilution minimal inhibitory concentration, E. Coli (Table I); assay type: cell-based; conditions: Escherichia coli; broth microdilution, Mueller-Hinton broth, 24 hour; read-out: MIC (minimal inhibitory concentration), E. Coli
Excerpt: (§1) A list is presented in Table I of analogs which exert an in-vitro antibacterial effect.

Bacteroides sp. = assay: In vitro antibacterial spectrum, agar dilution for anaerobic bacteria (Table II); assay type: cell-based; conditions: 23 isolates
Experimental: (§2) The agar dilution method described by A. L. Barry ("The Antimicrobic Susceptibility Test: Principles and Practice", 1976, Lea and Febiger, Philadelphia, Pa.) with compound concentrations of 32 μg/ml to 0.06 μg/ml, was used to determine the inhibitory activity of l-4-[5-(hydroxymethyl)-2-oxooxazolidin-3-yl]benzenesulfonamide for anaerobic bacteria.

Fusobacterium sp. = assay: as above; assay type: cell-based; conditions: 4 isolates
Experimental: as §2

Gram - Anaerobic Cocci = assay: as above; assay type: cell-based; conditions: 7 isolates
Experimental: as §2

Clostridium sp. = assay: as above; assay type: cell-based; conditions: 5 isolates
Experimental: as §2

Staphylococcus aureus = assay: In vivo efficacy in mice infected intraperitoneally with Staphylococcus aureus (Table III); conditions: 4 h, mice, intraperitoneal infection, 5% hog gastric mucin, oral dosing at infection and four hours post-infection, Reed-Muench, read-out: ED50, S. auerus
Experimental: (§3) In-vivo efficacy determinations were performed by inoculating mice interaperitoneally with cultures of the infecting organism diluted to produce 90-100% mortality in control animals within seven days. The diluents used were trypticase soy broth for E. coli, Proteus sp. and Psuedomonas aeruginosa and 5% hog gastric mucin for Staphylococcus aureus infections. The compounds, dissolved or suspended in 0.25% methocel.cndot.H2 O were administered orally by intubation at the time of infection and again at four hours post-infection. Mortality was recorded daily until test termination and the 50 percent effective dose. ED50, was calculated by the Reed-Muench method (Reed, L. G. and Muench, H., "A simple method of estimating fifty percent end points." American Journal of Hygiene, 27, 1938, 493-497).

S. epidermidis = assay: In vitro broth microdilution minimal inhibitory concentration, S. epidermidis (Table I); assay type: cell-based; conditions: Staphylococcus epidermidis; broth microdilution, Mueller-Hinton broth, 24 hour; read-out: MIC (minimal inhibitory concentration), S. epidermidis
Excerpt: as §1

E. coli [2] = assay: In vivo efficacy in mice infected intraperitoneally with E. coli (Table III); conditions: Escherichia coli, 4 h; mice, intraperitoneal infection, trypticase soy broth; oral dosing at infection and four hours post-infection; Reed-Muench; read-out: ED50, E. Coli
Experimental: as §3

E. Coli [3] = assay: In vitro antibacterial spectrum, agar dilution (Table II); assay type: cell-based; conditions: Escherichia coli, 86 isolates, 24-hour, 35° C.
Experimental: (§4) A summary of the in-vitro antibacterial spectrum of l-4-[5-(hydroxymethyl)-2-oxooxazolidin-3-yl]benzenesulfonamide, is shown in Table II. The minimal inhibitory concentrations for the aerobic and facultative anaerobic test isolates representing two gram-positive and eleven gram-negative genera were determined by an agar dilution method. The method is state of the art and is as follows. Mueller-Hinton agar plates are prepared containing two-fold compound concentrations ranging from 128 μg/ml to 1.0 μg/ml for the susceptibility testing of the bacterial strains except Neisseria gonorrhoea and Hemophilus sp. The latter organisms are tested using GC agar containing 1% Bacto-Supplement C (Difco Laboratories, Detroit, Mich.) and are incubated under 6% CO2. The agar plates are inoculated with a 0.001 ml calibrated loopful of bacterial inoculum diluted to contain 5×10^6 colony-forming units (CFU) per ml.

Providencia sp. = assay: as above; assay type: cell-based; conditions: 12 isolates, 24-hour, 35° C.
Experimental: as §4

Serratia sp. = assay: as above; assay type: cell-based; conditions: 44 isolates, 24-hour, 35° C.
Experimental: as §4

Neisseria sp. = assay: as above; assay type: cell-based; conditions: 43 isolates, 24-hour, 35° C.
Experimental: as §4

Proteus sp. = assay: as above; assay type: cell-based; conditions: 88 isolates, 24-hour, 35° C.
Experimental: as §4

Shiqella sp. = assay: as above; assay type: cell-based; conditions: 24 h, read-out: MEAN MIC, Shiqella sp.
Experimental: as §4

Staphylococci sp. = assay: as above; assay type: cell-based; conditions: 38 isolates, 24-hour, 35° C.
Experimental: as §4

Pseudomonas sp. = assay: as above; assay type: cell-based; conditions: 79 isolates, 24-hour, 35° C.
Experimental: as §4

Haemophilus sp. = assay: as above; assay type: cell-based; conditions: 4 isolates, GC agar, 6% CO2, 24-hour, 35° C.
Experimental: as §4

Enterobacter sp. = assay: as above; assay type: cell-based; conditions: 41 isolates, 24-hour, 35° C.
Experimental: as §4

Salmonella sp. = assay: as above; assay type: cell-based; conditions: 6 isolates, 24-hour, 35° C.
Experimental: as §4

Klebsiella sp. = assay: as above; assay type: cell-based; conditions: 50 isolates, 24-hour, 35° C.
Experimental: as §4

Streptococci sp. = assay: as above; assay type: cell-based; conditions: 14 isolates, 24-hour, 35° C.
Experimental: as §4

NS(=O)(=O)c1ccc(N2C[C@@H](CO)OC2=O)cc1 [Example 2, l-4-[5-(Hydroxymethyl)-2-oxooxazolidin-3-yl]benzenesulfonamide]
MIC (E. Coli [1]): 50 µg/mL (≈ 184 µM)
MIC (Bacteroides sp.): ≥ 15.1 µg/mL
MIC (Fusobacterium sp.): 0.9 µg/mL (≈ 3.31 µM)
MIC (Gram - Anaerobic Cocci): 6.1 µg/mL (≈ 22.4 µM)
MIC (Clostridium sp.): 16.8 µg/mL (≈ 61.7 µM)
ED50 (Staphylococcus aureus): 17.1 mg/kg
MIC (S. epidermidis): 100 µg/mL (≈ 367 µM)
ED50 (E. coli [2]): 13.2 mg/kg
MIC (E. Coli [3]): 29.8 µg/mL (≈ 109 µM)
MIC (Providencia sp.): 41.3 µg/mL (≈ 152 µM)
MIC (Serratia sp.): ≥ 96 µg/mL
MIC (Neisseria sp.): 12.3 µg/mL (≈ 45.2 µM)
MIC (Proteus sp.): 29.1 µg/mL (≈ 107 µM)
MIC (Shiqella sp.): 8 µg/mL (≈ 29.4 µM)
MIC (Staphylococci sp.): 22.3 µg/mL (≈ 81.9 µM)
MIC (Pseudomonas sp.): ≥ 117 µg/mL
MIC (Haemophilus sp.): 32 µg/mL (≈ 118 µM)
MIC (Enterobacter sp.): 58.5 µg/mL (≈ 215 µM)
MIC (Salmonella sp.): 32 µg/mL (≈ 118 µM)
MIC (Klebsiella sp.): 39.4 µg/mL (≈ 145 µM)
MIC (Streptococci sp.): 7.7 µg/mL (≈ 28.3 µM)
